From patent US7989466B2, “Methods to inhibit or augment an inflammatory response” (Cambridge Enterprise Limited, priority 1999, dated 2011)
Positions of bridges follow the written chain, without caps; N, C: chain ends. Non-standard residues stand in square brackets, D forms with d. Residues, ends and D or L forms follow the SMILES beside them.

Columns and labels:
[1] = test system: LPS- and MCP-1-induced dermal inflammation; experiment: Rat dermal inflammation model (MCP-1 / LPS intradermal); assay type: in vivo
Experimental: To assess the efficacy of an agent of the invention in the prevention of lipopolysaccharide (LPS)- and MCP-1-induced dermal inflammation in the rat, three different doses of CRD-Leu4Ile11Cys13peptide 3(3-12)[MCP-1] were administered. An inflammatory response was elicited by intradermal injection (ventral abdomen) of either 500 ng MCP-1 or 100 ng MCP-1 along with endotoxin-free phosphate-buffered saline vehicle (as a negative control) and bacterial lipopolysaccharide (LPS; as a positive control). Each substance was injected at a different site. The results obtained from animals were compared to CRD-Leu4Ile11Cys13 peptide 3(3-12)[MCP-1] treated, and PBS (diluent control) treated, animals. […] The intradermal sites of agonist injection were collected, bisected and the extent of the inflammatory response was assessed by histopathology and quantitative immunofluorescence (fixed and frozen) (for example, following MCP-1 injection, the number of monocyte/macrophages in the skin was determined using the anti-CD14 (MCA342 from Serotec; clone ED2) at 3 μg/ml overnight at 4° C. The second antibody was rat anti-mouse FITC (415-096-100 from Jackson ImmunoResearch) at 28 μg/ml for 6 hours at room temperature). […]

[2] = test system: RANTES induced THP-1 migration; experiment: THP-1 trans-well migration assay, RANTES as chemoattractant; assay type: cell-based, human; details: Homo sapiens, THP-1; read-out: ED50, RANTES chemotaxis assay
Experimental: To determine whether an agent inhibits a chemokine-induced activity, such as macrophage recruitment, varying amounts of the agent are mixed with cells in the presence of a known chemoattractant. For example, a range of known concentrations of an agent, e.g., a chemokine peptide, is incubated with a defined number (e.g., 10^4-10^6) of human THP-1 monocyte cells in individual wells of the top compartment of a trans-well plate. Chemokine (such as MCP-1, MIP1α, IL8 or SDF-1α), at a concentration known to cause significant migration of THP-1 cells in the trans-well migration assay, is placed in the lower compartment (FIG. 1). […] A standard curve consisting of a two-fold dilution series of THP-1 cells (in 29 μl) is prepared to accurately quantify the number of cells that have migrated. […] Absorbance of converted dye is measured at a wavelength of 595 nm using an ELISA plate reader. The number of migrated cells in each well is then determined by interpolation of the standard curve (see also Imai et al., J. Biol. Chem., 272, 15036 (1997)). […]
After incubation, the cells were gently removed from the top of the filter with a pipette, 20 μl of 20 mM EDTA in PBS was added into each top well, and the mixture was incubated for 20 minutes at 4° C. […] A standard curve was prepared to accurately quantify the number of THP-1 cells that had migrated. […]

Compound | recruitment of B-cells to the site of the LPS injection ([1]; rat skin) | MCP-1 induced recruitment of monocyte/macrophages in rat skin ([1]; systemic treatment 30 minutes before intradermal MCP-1) | EC50 [2] [nM]
CC[C@@H](C)[C@H]1NC(=O)[C@@H](CCC(N)=O)NC(=O)[C@H](N)CSSC[C@H](C(N)=O)NC(=O)[C@@H](CC(C)C)NC(=O)[C@@H](CC(=O)O)NC(=O)[C@H]2CCCN2C(=O)[C@@H](CCCCN)NC(=O)[C@@H](CCC(N)=O)NC(=O)[C@@H](CCCCN)NC(=O)[C@@H](Cc2c[nH]c3ccccc23)NC1=O (H-[dC][dQ][dI][dW][dK][dQ][dK][dP][dD][dL][dC]-NH2; disulfide 1-11; N-terminus assumed) | substantially inhibited | completely abolished | 
C=CCCCCCCCCC(=O)N[C@H]1CCC(=O)NC1=O [A-I (NR58.4), [3S]-3-(undec-10-enoylamino)piperidine-2,6-dione] |  |  | 0.3
